Results as given in patent publication US20110136853A1, “LIGAND WITH A BROAD SPECTRUM OF PHARMACOLOGICAL ACTIVITY, A PHARMACEUTICAL COMPOSITION, A MEDICINAL AGENT AND A METHOD OF TREATMENT” (priority 2008, published 2011).
Marks after values point to notes of the source that are not given here.

Tests used:
adrenergic α1A = molecular target: T1, adrenergic α1A (Rattus norvegicus, UniProt P43140); assay: radioligand displacement, adrenergic α1A; format: binding; settings: ligand 10 μM, duplicates
T1 construct: MDS Pharma Services (contract laboratory)
Procedure: (§1) The firm MDS Pharma Services [http://www.mdsps.com] carried out this test in duplicates at ligand concentration 10 μM by the displacement of the corresponding radioactive-labeled ligand. Test results, expressed in percent of ligand replacement (%), represented in Table 2 and in FIG. 1.

adrenergic α1B = molecular target: T2, adrenergic α1B (Rattus norvegicus, UniProt P15823); assay: radioligand displacement, adrenergic α1B; format: binding; settings: ligand 10 μM, duplicates
T2 construct: MDS Pharma Services (contract laboratory)
Procedure: as §1

adrenergic α2A = molecular target: T3, adrenergic α2A (Homo sapiens, UniProt P08913); assay: radioligand displacement, adrenergic α2A; format: binding; settings: human being, ligand 10 μM, duplicates
T3 construct: MDS Pharma Services (contract laboratory)
Procedure: as §1

adrenergic β2 = molecular target: T4, adrenergic β2 (Homo sapiens, UniProt P07550); assay: radioligand displacement, adrenergic β2; format: binding; settings: adrenergic β2, human being; ligand 10 μM, duplicates
T4 construct: MDS Pharma Services (contract laboratory)
Procedure: as §1

[1] = test system: calcium channel of L-type, benzothiazepine; assay: radioligand displacement, L-type calcium channel (benzothiazepine); format: binding; settings: rat, ligand 10 μM, duplicates
Procedure: as §1

dopamine D1 = molecular target: T5, dopamine D1 (Homo sapiens, UniProt P21728); assay: radioligand displacement, dopamine D1; format: binding; settings: dopamine D1, human being; ligand 10 μM, duplicates
T5 construct: MDS Pharma Services (contract laboratory)
Procedure: as §1

dopamine D2L = molecular target: T6, dopamine D2L (Homo sapiens, UniProt P14416); assay: radioligand displacement, dopamine D2L; format: binding; settings: human being, ligand 10 μM, duplicates
T6 construct: MDS Pharma Services (contract laboratory)
Procedure: as §1

dopamine D2S = molecular target: T7, dopamine D2S (Homo sapiens, UniProt P14416); assay: radioligand displacement, dopamine D2S; format: binding; settings: human being, ligand 10 μM, duplicates
T7 construct: MDS Pharma Services (contract laboratory)
Procedure: as §1

dopamine D3 = molecular target: T8, dopamine D3 (Homo sapiens, UniProt P35462); assay: radioligand displacement, dopamine D3; format: binding; settings: dopamine D3, human being; ligand 10 μM, duplicates
T8 construct: MDS Pharma Services (contract laboratory)
Procedure: as §1

histamine H1 = molecular target: T9, histamine H1 (Homo sapiens, UniProt P35367); assay: radioligand displacement, histamine H1; format: binding; settings: histamine H1, human being; ligand 10 μM, duplicates
T9 construct: MDS Pharma Services (contract laboratory)
Procedure: as §1

histamine H2 = molecular target: T10, histamine H2 (Homo sapiens, UniProt P25021); assay: radioligand displacement, histamine H2; format: binding; settings: histamine H2, human being; ligand 10 μM, duplicates
T10 construct: MDS Pharma Services (contract laboratory)
Procedure: as §1

serotonin 5-HT1B = molecular target: T11, serotonin 5-HT1B (Homo sapiens, UniProt P28222); assay: radioligand displacement, serotonin 5-HT1B; format: binding; settings: human being, ligand 10 μM, duplicates
T11 construct: MDS Pharma Services (contract laboratory)
Procedure: as §1

serotonin 5-HT2B = molecular target: T12, serotonin 5-HT2B (Homo sapiens, UniProt P41595); assay: radioligand displacement, serotonin 5-HT2B; format: binding; settings: human being, ligand 10 μM, duplicates
T12 construct: MDS Pharma Services (contract laboratory)
Procedure: as §1

serotonin 5-HT2C = molecular target: T13, serotonin 5-HT2C (Homo sapiens, UniProt P28335); assay: radioligand displacement, serotonin 5-HT2C; format: binding; settings: human being, ligand 10 μM, duplicates
T13 construct: MDS Pharma Services (contract laboratory)
Procedure: as §1

serotonin 5-HT6 = molecular target: T14, serotonin 5-HT6 (Homo sapiens, UniProt P50406); assay: radioligand displacement, serotonin 5-HT6; format: binding; settings: serotonin 5-HT6, human being; ligand 10 μM, duplicates
T14 construct: MDS Pharma Services (contract laboratory)
Procedure: as §1

serotonin 5-HT7 = molecular target: T15, serotonin 5-HT7 (Homo sapiens, UniProt P34969); assay: radioligand displacement, serotonin 5-HT7; format: binding; settings: serotonin 5-HT7, human being; ligand 10 μM, duplicates
T15 construct: MDS Pharma Services (contract laboratory)
Procedure: as §1

sigma σ1 = molecular target: T16, sigma σ1 (Homo sapiens, UniProt Q99720); assay: radioligand displacement, sigma σ1; format: binding; settings: sigma σ1, human being; ligand 10 μM, duplicates
T16 construct: MDS Pharma Services (contract laboratory)
Procedure: as §1

sigma σ2 = molecular target: T17, sigma σ2 (Rattus norvegicus, UniProt Q5U3Y7); assay: radioligand displacement, sigma σ2; format: binding; settings: ligand 10 μM, duplicates
T17 construct: MDS Pharma Services (contract laboratory)
Procedure: as §1

sodium channel, site 2 = assay: radioligand displacement, sodium channel site 2; format: binding; settings: site 2, rat, ligand 10 μM, duplicates
Procedure: as §1

[2] = molecular target: T18, dopamine transporter (DAT) (Homo sapiens, UniProt Q01959); assay: radioligand displacement, dopamine transporter; format: binding; settings: human being, ligand 10 μM, duplicates
T18 construct: MDS Pharma Services (contract laboratory)
Procedure: as §1

[3] = molecular target: T19, norepinephrine transporter (NET) (Homo sapiens, UniProt P23975); assay: radioligand displacement, norepinephrine transporter; format: binding; settings: human being, ligand 10 μM, duplicates
T19 construct: MDS Pharma Services (contract laboratory)
Procedure: as §1

male mice of BALB/c line = assay: Mice Behavior in the Elevated Plus Maze; format: in vivo; settings: 5 minutes, FIG. 8-10
Procedure: The length of maze arms makes 30 cm, the width 5 cm, height of walls 15 cm. Two opposite arms are closed from sides and end walls with prasparent walls, the two others are lighted and opened. A mouse was placed in the maze center and during 5 minutes the number of opened and closed arm entries and the time spent by the animals in opened and closed arms were registered. On this evidence indexes of opened arms preference were calculated as a ratio of the number of opened arm entries and also duration of their stay in the opened arms to the total number of entries into all of arms and duration of stay in them. Being in normal state animals avoid opened arms (index of preference makes 0.2-0.3). Compounds with anxiolytic activity (tranquilizing activity) run this value up to 0.5-0.6 and more, and also decrease the number of defecations without changing overall physical activity (general number of arm entries).

T3 sequence (P08913 whole entry): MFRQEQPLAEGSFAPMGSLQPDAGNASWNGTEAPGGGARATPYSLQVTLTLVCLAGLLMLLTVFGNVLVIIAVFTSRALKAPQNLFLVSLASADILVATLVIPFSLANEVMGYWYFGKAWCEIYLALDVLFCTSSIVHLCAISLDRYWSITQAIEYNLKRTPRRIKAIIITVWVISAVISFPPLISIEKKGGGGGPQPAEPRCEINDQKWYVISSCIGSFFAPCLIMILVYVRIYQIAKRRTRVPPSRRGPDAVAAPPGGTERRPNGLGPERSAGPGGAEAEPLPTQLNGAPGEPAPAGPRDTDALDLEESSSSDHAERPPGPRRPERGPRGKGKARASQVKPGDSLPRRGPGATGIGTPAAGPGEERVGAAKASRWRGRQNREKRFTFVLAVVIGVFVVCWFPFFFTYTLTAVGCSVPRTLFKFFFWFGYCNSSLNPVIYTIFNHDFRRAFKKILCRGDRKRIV
T16 sequence (Q99720 whole entry): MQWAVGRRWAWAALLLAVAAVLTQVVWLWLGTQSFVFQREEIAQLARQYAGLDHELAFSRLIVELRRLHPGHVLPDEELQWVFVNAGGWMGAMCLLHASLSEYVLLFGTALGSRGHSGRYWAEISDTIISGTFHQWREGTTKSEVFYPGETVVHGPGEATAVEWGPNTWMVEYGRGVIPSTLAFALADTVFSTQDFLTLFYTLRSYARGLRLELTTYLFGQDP
T2 sequence (P15823 whole entry): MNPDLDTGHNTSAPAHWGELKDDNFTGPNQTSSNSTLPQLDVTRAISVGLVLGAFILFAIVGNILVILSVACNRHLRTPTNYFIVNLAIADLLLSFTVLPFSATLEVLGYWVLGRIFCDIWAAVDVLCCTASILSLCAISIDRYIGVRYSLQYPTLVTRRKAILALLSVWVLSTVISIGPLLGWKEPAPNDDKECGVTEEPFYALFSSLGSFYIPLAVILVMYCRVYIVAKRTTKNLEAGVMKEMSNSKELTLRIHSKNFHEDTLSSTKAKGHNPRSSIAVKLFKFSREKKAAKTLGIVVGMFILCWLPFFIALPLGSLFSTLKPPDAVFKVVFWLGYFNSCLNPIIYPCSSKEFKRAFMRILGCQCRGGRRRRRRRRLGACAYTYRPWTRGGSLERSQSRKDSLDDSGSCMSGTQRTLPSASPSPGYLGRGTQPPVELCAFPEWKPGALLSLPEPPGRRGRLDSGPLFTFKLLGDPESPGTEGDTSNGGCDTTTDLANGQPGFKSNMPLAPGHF
T7 sequence (P14416 1-414 isoform P14416-2): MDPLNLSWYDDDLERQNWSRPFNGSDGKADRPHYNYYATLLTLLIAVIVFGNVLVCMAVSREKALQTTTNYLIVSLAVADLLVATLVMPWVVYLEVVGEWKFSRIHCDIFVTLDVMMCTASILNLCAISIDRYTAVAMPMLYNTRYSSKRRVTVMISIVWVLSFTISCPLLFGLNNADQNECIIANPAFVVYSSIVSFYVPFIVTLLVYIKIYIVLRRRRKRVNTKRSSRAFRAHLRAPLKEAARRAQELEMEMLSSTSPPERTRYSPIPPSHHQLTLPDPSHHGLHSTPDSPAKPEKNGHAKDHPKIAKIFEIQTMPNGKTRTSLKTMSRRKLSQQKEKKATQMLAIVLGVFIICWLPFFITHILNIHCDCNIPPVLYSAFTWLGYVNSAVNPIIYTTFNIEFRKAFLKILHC
T10 sequence (P25021 whole entry): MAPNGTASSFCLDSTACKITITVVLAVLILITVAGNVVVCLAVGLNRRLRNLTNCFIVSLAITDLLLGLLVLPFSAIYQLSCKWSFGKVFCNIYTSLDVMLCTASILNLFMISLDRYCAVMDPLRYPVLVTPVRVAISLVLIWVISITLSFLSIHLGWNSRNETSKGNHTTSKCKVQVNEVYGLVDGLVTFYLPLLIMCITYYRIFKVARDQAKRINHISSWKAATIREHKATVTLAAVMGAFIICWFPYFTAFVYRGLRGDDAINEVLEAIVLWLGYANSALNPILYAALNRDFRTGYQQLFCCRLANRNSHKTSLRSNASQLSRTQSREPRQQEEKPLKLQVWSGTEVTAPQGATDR
T14 sequence (P50406 whole entry): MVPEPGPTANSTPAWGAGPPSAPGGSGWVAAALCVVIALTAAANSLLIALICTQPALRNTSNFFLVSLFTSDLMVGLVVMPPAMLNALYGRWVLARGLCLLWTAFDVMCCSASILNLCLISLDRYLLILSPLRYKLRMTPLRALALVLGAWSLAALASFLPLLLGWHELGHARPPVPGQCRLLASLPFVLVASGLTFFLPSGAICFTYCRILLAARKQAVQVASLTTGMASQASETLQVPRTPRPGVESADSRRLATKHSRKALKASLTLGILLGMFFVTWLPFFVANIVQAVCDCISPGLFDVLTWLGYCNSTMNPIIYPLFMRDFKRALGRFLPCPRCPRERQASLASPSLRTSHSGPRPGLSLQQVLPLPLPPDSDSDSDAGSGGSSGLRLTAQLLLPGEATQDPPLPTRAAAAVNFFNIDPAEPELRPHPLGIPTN
T8 sequence (P35462 whole entry): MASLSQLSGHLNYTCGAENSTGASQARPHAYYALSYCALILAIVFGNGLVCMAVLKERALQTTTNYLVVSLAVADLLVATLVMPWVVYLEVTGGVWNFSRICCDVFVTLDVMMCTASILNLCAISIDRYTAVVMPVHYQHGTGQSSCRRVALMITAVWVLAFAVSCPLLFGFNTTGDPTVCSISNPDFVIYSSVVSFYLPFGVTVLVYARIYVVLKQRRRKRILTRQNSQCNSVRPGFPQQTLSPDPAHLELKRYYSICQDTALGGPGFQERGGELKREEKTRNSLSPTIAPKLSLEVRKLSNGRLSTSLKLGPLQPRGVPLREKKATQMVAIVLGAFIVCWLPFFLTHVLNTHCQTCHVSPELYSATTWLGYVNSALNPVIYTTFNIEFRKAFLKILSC
T13 sequence (P28335 33-458): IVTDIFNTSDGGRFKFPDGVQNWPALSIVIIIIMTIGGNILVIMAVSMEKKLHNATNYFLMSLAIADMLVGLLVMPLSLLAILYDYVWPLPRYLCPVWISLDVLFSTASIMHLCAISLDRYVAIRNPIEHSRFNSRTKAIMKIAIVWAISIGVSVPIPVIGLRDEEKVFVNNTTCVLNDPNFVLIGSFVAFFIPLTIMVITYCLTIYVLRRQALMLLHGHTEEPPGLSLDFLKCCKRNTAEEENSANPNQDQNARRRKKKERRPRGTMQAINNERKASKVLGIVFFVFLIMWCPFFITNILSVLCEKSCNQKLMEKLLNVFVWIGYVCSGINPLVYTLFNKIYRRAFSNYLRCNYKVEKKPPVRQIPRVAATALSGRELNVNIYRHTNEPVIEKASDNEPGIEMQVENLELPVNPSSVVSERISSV
T17 sequence (Q5U3Y7 whole entry): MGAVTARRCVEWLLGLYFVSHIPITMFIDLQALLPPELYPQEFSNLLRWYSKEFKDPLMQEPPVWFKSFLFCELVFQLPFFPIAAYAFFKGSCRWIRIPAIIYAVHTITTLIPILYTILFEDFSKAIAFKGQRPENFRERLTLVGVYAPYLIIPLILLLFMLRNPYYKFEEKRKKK
T15 sequence (P34969 whole entry): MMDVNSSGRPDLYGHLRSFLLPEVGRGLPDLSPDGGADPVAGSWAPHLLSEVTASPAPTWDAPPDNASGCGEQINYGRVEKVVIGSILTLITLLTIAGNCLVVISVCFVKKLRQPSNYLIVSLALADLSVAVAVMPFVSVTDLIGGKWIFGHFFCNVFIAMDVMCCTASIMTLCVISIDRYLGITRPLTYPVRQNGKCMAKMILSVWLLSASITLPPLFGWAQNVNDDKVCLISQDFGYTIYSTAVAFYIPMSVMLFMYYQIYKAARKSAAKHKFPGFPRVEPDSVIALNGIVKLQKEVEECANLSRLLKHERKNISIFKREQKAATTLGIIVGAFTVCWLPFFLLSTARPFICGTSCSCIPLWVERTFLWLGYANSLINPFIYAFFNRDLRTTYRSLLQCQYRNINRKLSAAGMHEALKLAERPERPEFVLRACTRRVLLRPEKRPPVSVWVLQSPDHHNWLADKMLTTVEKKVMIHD
T11 sequence (P28222 whole entry): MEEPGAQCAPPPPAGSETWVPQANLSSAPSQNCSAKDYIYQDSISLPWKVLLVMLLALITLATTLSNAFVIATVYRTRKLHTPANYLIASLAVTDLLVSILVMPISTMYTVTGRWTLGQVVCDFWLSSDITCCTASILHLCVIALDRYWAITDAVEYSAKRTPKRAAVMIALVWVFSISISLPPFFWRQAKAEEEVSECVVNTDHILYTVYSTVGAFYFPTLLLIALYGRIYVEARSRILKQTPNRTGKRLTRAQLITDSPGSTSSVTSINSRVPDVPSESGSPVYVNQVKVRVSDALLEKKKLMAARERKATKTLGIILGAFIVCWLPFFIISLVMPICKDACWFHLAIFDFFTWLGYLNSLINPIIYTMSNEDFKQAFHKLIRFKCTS
T6 sequence (P14416 whole entry): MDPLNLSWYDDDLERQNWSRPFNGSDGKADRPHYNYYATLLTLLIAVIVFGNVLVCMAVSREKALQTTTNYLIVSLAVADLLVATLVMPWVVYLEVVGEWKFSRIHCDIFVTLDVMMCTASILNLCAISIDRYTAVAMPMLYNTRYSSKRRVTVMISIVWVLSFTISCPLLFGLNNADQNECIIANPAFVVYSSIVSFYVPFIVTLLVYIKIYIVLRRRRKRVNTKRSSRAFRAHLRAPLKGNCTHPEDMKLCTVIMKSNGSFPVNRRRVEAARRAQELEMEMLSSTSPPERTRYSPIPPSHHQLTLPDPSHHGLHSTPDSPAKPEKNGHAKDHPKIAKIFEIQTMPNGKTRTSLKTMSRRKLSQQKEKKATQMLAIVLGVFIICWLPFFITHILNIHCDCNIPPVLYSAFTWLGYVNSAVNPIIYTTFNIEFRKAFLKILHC

For `CN1CCc2c(c3ccccc3n2Cc2ccccc2)C1` [formula 1, 3-methyl-9-benzyl-1,2,3,4-tetrahydrocarboline naphthalene-1,5-disulfonate], the “% of radioactive-labeled ligand replacement” value (adrenergic α1A) was 70%, the “% of radioactive-labeled ligand replacement” value (adrenergic α1B) was 70% and the “% of radioactive-labeled ligand replacement” value (adrenergic α2A) was 100%. The “% of radioactive-labeled ligand replacement” value (adrenergic β2) was 76%, the “% of radioactive-labeled ligand replacement” value [1] was 65% and the “% of radioactive-labeled ligand replacement” value (dopamine D1) was 62%. For the same molecule, the “% of radioactive-labeled ligand replacement” value (dopamine D2L) was 51%, the “% of radioactive-labeled ligand replacement” value (dopamine D2S) was 60% and the “% of radioactive-labeled ligand replacement” value (dopamine D3) was 80%. The “% of radioactive-labeled ligand replacement” value (histamine H1) was 97%, the “% of radioactive-labeled ligand replacement” value (histamine H2) was 97% and the “% of radioactive-labeled ligand replacement” value (serotonin 5-HT1B) was 64* %. The “% of radioactive-labeled ligand replacement” value (serotonin 5-HT2B) was 52%, the “% of radioactive-labeled ligand replacement” value (serotonin 5-HT2C) was 79% and the “% of radioactive-labeled ligand replacement” value (serotonin 5-HT6) was 79%. For the same molecule, the “% of radioactive-labeled ligand replacement” value (serotonin 5-HT7) was 76%, the “% of radioactive-labeled ligand replacement” value (sigma σ1) was 75% and the “% of radioactive-labeled ligand replacement” value (sigma σ2) was 52%. The “% of radioactive-labeled ligand replacement” value (sodium channel, site 2) was 93%, the “% of radioactive-labeled ligand replacement” value [2] was 99% and the “% of radioactive-labeled ligand replacement” value [3] was 67%. The “anxiolytic (tranquilizing) action” value (male mice of BALB/c line) was “anxiolytic (tranquilizing) activity comparable with the activity of Buspirone and Lorazepam”.
